Results published in article PMC11868595, “Safety, pharmacokinetics and efficacy of HA121-28 in patients with advanced solid tumors and RET fusion-positive non-small-cell lung cancer: a multicenter, open-label, single-arm phase 1/2 trial” (Signal Transduction and Targeted Therapy, 2025).

Tests used:
[1] = tested on: patients of phase 1 and phase 2 trials; assay: Phase 1/2 pooled TRAEs with or without previous immunotherapy; type: in vivo, human
Experimental: Treatment-emergent adverse events (TEAEs) were documented during the entire study period. The predefined adverse event of special interest (AESI) was ≥ grade 3 prolonged QT interval. Tumor imaging was performed using contrast-enhanced computed tomography or magnetic resonance imaging at screening, Day 28 of the first cycle, then approximately every eight weeks till the end of the study for phase 1; in phase 2, imaging was scheduled at screening, and every eight weeks during the first 40 weeks, followed by every 12 weeks for the rest of the study period. RECIST 1.1 was used by the independent review committee or investigators for assessment of tumor response. After the original assessment, a repeated assessment was required around four weeks later to confirm a complete or partial response.
The full analysis set consisted of all patients who had administered at least one dose of HA121-28 and was used to calculate the baseline characteristics, OS, and PFS results. The safety set included all patients who had administered at least one dose of the HA121-28 and had at least one safety-related observation. This population was used for analysis of TEAEs. The efficacy evaluable set consisted of patients who had administered at least one dose of HA121-28 and completed at least one efficacy assessment following study treatment. This population was used to calculate the ORR, DOR, and DCR. In addition, the ORRs for subgroup analyses, including age ( < 60, ≥60), ECOG PS (0 or 1), gender (male or female), prior treatment with TKIs (yes or no), brain or liver metastasis (yes or no), were also calculated. The plasma drug concentration-time profile was characterized using PK concentration set that included patients who had administered at least one dose of HA121-28 and had at least one measurable plasma concentration of HA121-28. The PK parameter set was used to calculate PK parameters, which consisted of patients who had administered at least one dose of HA121-28 with at least one valid PK parameter. ORR and DCR were described using the Clopper-Pearson method with two-sided 95% confidence intervals (CIs). PFS and DOR were assessed using the Kaplan-Meier method, including an estimate of the median, along with corresponding 95% CIs. Statistical analyses of clinical outcomes were conducted by SAS (version 9.4 or later) and R software 4.1.0 for genomic DNA from pre-treatment tumor tissue (http://cran.r-project.org).

EphA1 = EphA1 (Homo sapiens, UniProt P21709); assay: Tyrosine kinase inhibition; type: biochemical
Sequence of EphA1 (P21709 26-976): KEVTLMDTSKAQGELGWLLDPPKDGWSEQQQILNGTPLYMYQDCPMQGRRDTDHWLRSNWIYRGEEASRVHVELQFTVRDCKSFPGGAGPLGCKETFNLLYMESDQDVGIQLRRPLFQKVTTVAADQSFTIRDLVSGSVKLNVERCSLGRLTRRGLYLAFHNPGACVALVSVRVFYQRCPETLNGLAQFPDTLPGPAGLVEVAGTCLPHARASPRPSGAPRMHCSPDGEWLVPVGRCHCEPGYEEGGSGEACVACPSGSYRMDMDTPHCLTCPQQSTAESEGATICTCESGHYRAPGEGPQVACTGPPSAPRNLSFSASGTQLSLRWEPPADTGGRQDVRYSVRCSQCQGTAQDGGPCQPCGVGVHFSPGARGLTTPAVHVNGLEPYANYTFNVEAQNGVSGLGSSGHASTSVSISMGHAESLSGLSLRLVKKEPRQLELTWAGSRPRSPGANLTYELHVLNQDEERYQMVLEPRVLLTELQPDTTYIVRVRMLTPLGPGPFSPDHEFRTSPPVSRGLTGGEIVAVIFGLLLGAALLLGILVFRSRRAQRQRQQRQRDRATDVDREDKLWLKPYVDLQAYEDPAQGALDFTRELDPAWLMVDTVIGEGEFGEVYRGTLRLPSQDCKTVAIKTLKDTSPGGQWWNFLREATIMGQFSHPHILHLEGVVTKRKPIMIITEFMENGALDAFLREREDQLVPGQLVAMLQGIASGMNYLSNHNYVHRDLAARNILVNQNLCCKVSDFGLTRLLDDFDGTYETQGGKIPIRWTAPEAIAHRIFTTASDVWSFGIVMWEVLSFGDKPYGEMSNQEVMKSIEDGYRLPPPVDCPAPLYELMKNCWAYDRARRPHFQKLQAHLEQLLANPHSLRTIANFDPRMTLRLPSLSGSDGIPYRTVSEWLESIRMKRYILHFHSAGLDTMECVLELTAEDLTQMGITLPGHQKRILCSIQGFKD

Plasma protein binding = type: in vitro ADME; conditions: dogs
ABL1 = ABL1 (Homo sapiens, UniProt P00519); assay: Tyrosine kinase inhibition; type: biochemical
Sequence of ABL1 (P00519 whole entry): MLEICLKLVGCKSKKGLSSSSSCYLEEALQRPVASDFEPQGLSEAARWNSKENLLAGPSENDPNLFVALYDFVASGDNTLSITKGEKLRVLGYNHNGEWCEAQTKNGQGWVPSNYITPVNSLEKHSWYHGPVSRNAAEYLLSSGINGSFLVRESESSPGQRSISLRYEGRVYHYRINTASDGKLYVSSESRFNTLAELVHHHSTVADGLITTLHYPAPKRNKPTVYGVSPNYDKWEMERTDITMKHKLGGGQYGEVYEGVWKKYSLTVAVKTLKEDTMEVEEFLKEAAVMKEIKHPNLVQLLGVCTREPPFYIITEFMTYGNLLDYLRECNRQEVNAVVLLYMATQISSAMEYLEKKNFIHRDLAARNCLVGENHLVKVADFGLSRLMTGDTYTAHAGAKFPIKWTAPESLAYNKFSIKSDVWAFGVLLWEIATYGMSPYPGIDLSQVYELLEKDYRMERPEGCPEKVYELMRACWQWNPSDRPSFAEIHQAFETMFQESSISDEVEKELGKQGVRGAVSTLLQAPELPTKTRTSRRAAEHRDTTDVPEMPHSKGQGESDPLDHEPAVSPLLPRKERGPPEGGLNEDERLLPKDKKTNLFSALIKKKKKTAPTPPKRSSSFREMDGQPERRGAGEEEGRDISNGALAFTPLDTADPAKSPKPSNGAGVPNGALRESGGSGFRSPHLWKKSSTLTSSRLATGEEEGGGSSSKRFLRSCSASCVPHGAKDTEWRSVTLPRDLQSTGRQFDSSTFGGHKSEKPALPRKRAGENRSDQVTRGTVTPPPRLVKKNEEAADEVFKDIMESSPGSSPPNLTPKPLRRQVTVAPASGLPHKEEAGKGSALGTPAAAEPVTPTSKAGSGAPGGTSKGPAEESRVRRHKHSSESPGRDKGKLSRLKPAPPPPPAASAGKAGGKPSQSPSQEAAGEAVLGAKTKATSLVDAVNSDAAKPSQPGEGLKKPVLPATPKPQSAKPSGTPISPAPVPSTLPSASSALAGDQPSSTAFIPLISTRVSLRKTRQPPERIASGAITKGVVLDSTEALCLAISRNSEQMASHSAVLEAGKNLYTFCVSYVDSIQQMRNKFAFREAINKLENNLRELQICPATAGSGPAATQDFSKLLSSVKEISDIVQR

[2] = With prior immunotherapy treatment (N=43)
[3] = Without prior immunotherapy treatment (N=165)

COc1cc2c(Nc3ccc(Br)cc3F)ncnc2cc1OCCCCN(C)C.Cl.Cl [HA121-28, N-(4-bromo-2-fluorophenyl)-7-(4-(dimethylamino)butoxy)-6-methoxy quinazolin-4-amine dihydrochloride]
incidence of ≥ grade-3 TRAE ([1]; 43 patients with previous immunotherapy): 58.1% | incidence of ≥ grade-3 TRAE ([1]; 165 patients without previous immunotherapy): 41.2% | TRAE, All: ALT increased [1, 2]: 22 (51.2) count (percentage) | TRAE, All: AST increased [1, 2]: 19 (44.2) count (percentage) | TRAE, All: Anemia [1, 2]: 5 (11.6) count (percentage) | TRAE, All: Any [1, 2]: 42 (97.7) count (percentage) | TRAE, All: Blood creatinine increased [1, 2]: 11 (25.6) count (percentage) | TRAE, All: Decreased appetite [1, 2]: 7 (16.3) count (percentage) | TRAE, All: Decreased lymphocyte counts [1, 2]: 5 (11.6) count (percentage) | TRAE, All: Diarrhea [1, 2]: 32 (74.4) count (percentage) | TRAE, All: Fatigue [1, 2]: 6 (14.0) count (percentage) | TRAE, All: Hypertension [1, 2]: 5 (11.6) count (percentage) | TRAE, All: Hypoalbuminemia [1, 2]: 5 (11.6) count (percentage) | TRAE, All: Hypokalemia [1, 2]: 9 (20.9) count (percentage) | TRAE, All: Nausea [1, 2]: 6 (14.0) count (percentage) | TRAE, All: Neutrophil counts decreased [1, 2]: 7 (16.3) count (percentage) | TRAE, All: Platelet counts decreased [1, 2]: 7 (16.3) count (percentage) | TRAE, All: Prolonged QT interval [1, 2]: 23 (53.5) count (percentage) | TRAE, All: Proteinuria [1, 2]: 17 (39.5) count (percentage) | TRAE, All: Rash [1, 2]: 31 (72.1) count (percentage) | TRAE, All: Vomiting [1, 2]: 7 (16.3) count (percentage) | TRAE, All: Weight loss [1, 2]: 6 (14.0) count (percentage) | TRAE, All: White blood cell counts decreased [1, 2]: 7 (16.3) count (percentage) | TRAE, ≥ Grade 3: ALT increased [1, 2]: 1 (2.3) count (percentage) | TRAE, ≥ Grade 3: AST increased [1, 2]: 1 (2.3) count (percentage) | TRAE, ≥ Grade 3: Anemia [1, 2]: 0 count (percentage) | TRAE, ≥ Grade 3: Any [1, 2]: 25 (58.1) count (percentage) | TRAE, ≥ Grade 3: Blood creatinine increased [1, 2]: 0 count (percentage) | TRAE, ≥ Grade 3: Decreased appetite [1, 2]: 0 count (percentage) | TRAE, ≥ Grade 3: Decreased lymphocyte counts [1, 2]: 0 count (percentage) | TRAE, ≥ Grade 3: Diarrhea [1, 2]: 4 (9.3) count (percentage) | TRAE, ≥ Grade 3: Fatigue [1, 2]: 0 count (percentage) | TRAE, ≥ Grade 3: Hypertension [1, 2]: 0 count (percentage) | TRAE, ≥ Grade 3: Hypoalbuminemia [1, 2]: 0 count (percentage) | TRAE, ≥ Grade 3: Hypokalemia [1, 2]: 3 (7.0) count (percentage) | TRAE, ≥ Grade 3: Nausea [1, 2]: 0 count (percentage) | TRAE, ≥ Grade 3: Neutrophil counts decreased [1, 2]: 3 (7.0) count (percentage) | TRAE, ≥ Grade 3: Platelet counts decreased [1, 2]: 0 count (percentage) | TRAE, ≥ Grade 3: Prolonged QT interval [1, 2]: 12 (27.9) count (percentage) | TRAE, ≥ Grade 3: Proteinuria [1, 2]: 0 count (percentage) | TRAE, ≥ Grade 3: Rash [1, 2]: 3 (7.0) count (percentage) | TRAE, ≥ Grade 3: Vomiting [1, 2]: 0 count (percentage) | TRAE, ≥ Grade 3: Weight loss [1, 2]: 0 count (percentage) | TRAE, ≥ Grade 3: White blood cell counts decreased [1, 2]: 1 (2.3) count (percentage) | TRAE, All: ALT increased [1, 3]: 52 (31.5) count (percentage) | TRAE, All: AST increased [1, 3]: 52 (31.5) count (percentage) | TRAE, All: Anemia [1, 3]: 14 (8.5) count (percentage) | TRAE, All: Any [1, 3]: 161 (97.6) count (percentage) | TRAE, All: Blood creatinine increased [1, 3]: 33 (20.0) count (percentage) | TRAE, All: Decreased appetite [1, 3]: 25 (15.2) count (percentage) | TRAE, All: Decreased lymphocyte counts [1, 3]: 5 (3.0) count (percentage) | TRAE, All: Diarrhea [1, 3]: 125 (75.8) count (percentage) | TRAE, All: Fatigue [1, 3]: 22 (13.3) count (percentage) | TRAE, All: Hypertension [1, 3]: 22 (13.3) count (percentage) | TRAE, All: Hypoalbuminemia [1, 3]: 20 (12.1) count (percentage) | TRAE, All: Hypokalemia [1, 3]: 26 (15.8) count (percentage) | TRAE, All: Nausea [1, 3]: 37 (22.4) count (percentage) | TRAE, All: Neutrophil counts decreased [1, 3]: 13 (7.9) count (percentage) | TRAE, All: Platelet counts decreased [1, 3]: 12 (7.3) count (percentage) | TRAE, All: Prolonged QT interval [1, 3]: 76 (46.1) count (percentage) | TRAE, All: Proteinuria [1, 3]: 48 (29.1) count (percentage) | TRAE, All: Rash [1, 3]: 88 (53.3) count (percentage) | TRAE, All: Vomiting [1, 3]: 30 (18.2) count (percentage) | TRAE, All: Weight loss [1, 3]: 6 (3.6) count (percentage) | TRAE, All: White blood cell counts decreased [1, 3]: 14 (8.5) count (percentage) | TRAE, ≥ Grade 3: ALT increased [1, 3]: 3 (1.8) count (percentage) | TRAE, ≥ Grade 3: AST increased [1, 3]: 3 (1.8) count (percentage) | TRAE, ≥ Grade 3: Anemia [1, 3]: 1 (0.6) count (percentage) | TRAE, ≥ Grade 3: Any [1, 3]: 68 (41.2) count (percentage) | TRAE, ≥ Grade 3: Blood creatinine increased [1, 3]: 2 (1.2) count (percentage) | TRAE, ≥ Grade 3: Decreased appetite [1, 3]: 4 (2.4) count (percentage) | TRAE, ≥ Grade 3: Decreased lymphocyte counts [1, 3]: 0 count (percentage) | TRAE, ≥ Grade 3: Diarrhea [1, 3]: 12 (7.3) count (percentage) | TRAE, ≥ Grade 3: Fatigue [1, 3]: 0 count (percentage) | TRAE, ≥ Grade 3: Hypertension [1, 3]: 14 (8.5) count (percentage) | TRAE, ≥ Grade 3: Hypoalbuminemia [1, 3]: 1 (0.6) count (percentage) | TRAE, ≥ Grade 3: Hypokalemia [1, 3]: 4 (2.4) count (percentage) | TRAE, ≥ Grade 3: Nausea [1, 3]: 2 (1.2) count (percentage) | TRAE, ≥ Grade 3: Neutrophil counts decreased [1, 3]: 1 (0.6) count (percentage) | TRAE, ≥ Grade 3: Platelet counts decreased [1, 3]: 1 (0.6) count (percentage) | TRAE, ≥ Grade 3: Prolonged QT interval [1, 3]: 26 (15.8) count (percentage) | TRAE, ≥ Grade 3: Proteinuria [1, 3]: 0 count (percentage) | TRAE, ≥ Grade 3: Rash [1, 3]: 7 (4.2) count (percentage) | TRAE, ≥ Grade 3: Vomiting [1, 3]: 2 (1.2) count (percentage) | TRAE, ≥ Grade 3: Weight loss [1, 3]: 0 count (percentage) | TRAE, ≥ Grade 3: White blood cell counts decreased [1, 3]: 2 (1.2) count (percentage) | ≥ grade-3 TRAE decreased neutrophil counts ([1]; with previous immunotherapy): 7.0% | ≥ grade-3 TRAE hypertension ([1]; with previous immunotherapy): 0% | ≥ grade-3 TRAE prolonged QT interval ([1]; with previous immunotherapy): 27.9% | ≥ grade-3 TRAE decreased neutrophil counts ([1]; without previous immunotherapy): 0.6% | ≥ grade-3 TRAE hypertension ([1]; without previous immunotherapy): 8.5% | ≥ grade-3 TRAE prolonged QT interval ([1]; without previous immunotherapy): 15.8% | IC50 (EphA1): 0.0869 µM | plasma protein binding rate (Plasma protein binding): 91.9±0.857% | IC50 (ABL1): 0.153 µM
